From patent publication US20050020616A1, “Aryl fused azapolycyclic compounds” (Pfizer Inc, priority 2003, published 2005)
Counter-ions that a name gives are not always drawn.

melting point: 252 °C
Compound: O=[N+]([O-])c1ccc2c(c1)C1CCC2CNC1 (stereo not shown) (as salt: hydrochloride)
